Test results reported in patent US20240109903A1, “SUBSTITUTED HETEROCYCLES FOR TREATING CANCER” (Northwestern University, priority 2022, published 2024).
Like-named read-outs stand apart in the source and are kept apart here.

How the values were obtained:
UACC-62 = test: NCI 60 five-dose screen UACC-62; assay type: cell-based; conditions: Homo sapiens; for CC50: read-out: LC50 (the source's name) (converted)
SNB-19 = test: NCI 60 five-dose screen SNB-19; assay type: cell-based; conditions: Homo sapiens; for CC50: read-out: LC50 (the source's name) (converted)
OVCAR-4 = test: NCI 60 five-dose screen OVCAR-4; assay type: cell-based; conditions: Homo sapiens; for CC50: read-out: LC50 (the source's name) (converted)
HS 578T = test: NCI 60 five-dose screen HS 578T; assay type: cell-based; conditions: Homo sapiens; for CC50: read-out: LC50 (the source's name)
ACHN = test: NCI 60 five-dose screen ACHN; assay type: cell-based; conditions: Homo sapiens; for CC50: read-out: LC50 (the source's name) (converted)
SK-OV-3 = test: NCI 60 five-dose screen SK-OV-3; assay type: cell-based; conditions: Homo sapiens; for CC50: read-out: LC50 (the source's name) (converted)
HCC-2998 = test: NCI 60 five-dose screen HCC-2998; assay type: cell-based; conditions: Homo sapiens; for CC50: read-out: LC50 (the source's name) (converted)
SK-MEL-2 = test: NCI 60 five-dose screen SK-MEL-2; assay type: cell-based; conditions: Homo sapiens; for CC50: read-out: LC50 (the source's name) (converted)
MDA-MB-468 = test: NCI 60 five-dose screen MDA-MB-468; assay type: cell-based; conditions: Homo sapiens; for CC50: read-out: LC50 (the source's name) (converted)
NCI-H23 = test: NCI 60 five-dose screen NCI-H23; assay type: cell-based; conditions: Homo sapiens; for CC50: read-out: LC50 (the source's name) (converted)
T-47D = test: NCI 60 five-dose screen T-47D; assay type: cell-based; conditions: Homo sapiens, T47D; for CC50: read-out: LC50 (the source's name)
HT29 = test: NCI 60 five-dose screen HT29; assay type: cell-based; conditions: Homo sapiens
SN12C = test: NCI 60 five-dose screen SN12C; assay type: cell-based; conditions: Homo sapiens; for CC50: read-out: LC50 (the source's name) (converted)
U251 = test: NCI 60 five-dose screen U251; assay type: cell-based; conditions: Homo sapiens
SR = test: NCI 60 five-dose screen SR; assay type: cell-based, human; conditions: for GI50 / IC50 / CC50: Homo sapiens; for CC50: read-out: LC50 (the source's name)
M14 = test: NCI 60 five-dose screen M14; assay type: cell-based; conditions: Homo sapiens; for CC50: read-out: LC50 (the source's name) (converted)
UACC-257 = test: NCI 60 five-dose screen UACC-257; assay type: cell-based; conditions: Homo sapiens; for CC50: read-out: LC50 (the source's name) (converted)
SF-539 = test: NCI 60 five-dose screen SF-539; assay type: cell-based; conditions: Homo sapiens; for CC50: read-out: LC50 (the source's name) (converted)
COLO 205 = test: NCI 60 five-dose screen COLO 205; assay type: cell-based; conditions: Homo sapiens; for CC50: read-out: LC50 (the source's name) (converted)
SNB-75 = test: NCI 60 five-dose screen SNB-75; assay type: cell-based; conditions: Homo sapiens; for CC50: read-out: LC50 (the source's name) (converted)
SK-MEL-28 = test: NCI 60 five-dose screen SK-MEL-28; assay type: cell-based; conditions: Homo sapiens; for CC50: read-out: LC50 (the source's name) (converted)
HOP-62 = test: NCI 60 five-dose screen HOP-62; assay type: cell-based; conditions: Homo sapiens; for CC50: read-out: LC50 (the source's name) (converted)
SK-MEL-5 = test: NCI 60 five-dose screen SK-MEL-5; assay type: cell-based; conditions: Homo sapiens; for CC50: read-out: LC50 (the source's name) (converted)
MDA-MB-231/ATCC = test: NCI 60 five-dose screen MDA-MB-231/ATCC; assay type: cell-based; conditions: Homo sapiens; for CC50: read-out: LC50 (the source's name) (converted)
OVCAR-3 = test: NCI 60 five-dose screen OVCAR-3; assay type: cell-based; conditions: Homo sapiens; for CC50: read-out: LC50 (the source's name) (converted)
A549/ATCC = test: NCI 60 five-dose screen A549/ATCC; assay type: cell-based; conditions: Homo sapiens; for CC50: read-out: LC50 (the source's name) (converted)
A498 = test: NCI 60 five-dose screen A498; assay type: cell-based; conditions: Homo sapiens; for CC50: read-out: LC50 (the source's name) (converted)
SW-620 = test: NCI 60 five-dose screen SW-620; assay type: cell-based; conditions: Homo sapiens; for CC50: read-out: LC50 (the source's name) (converted)

## COc1cc(Cn2c(C(F)(F)F)cc3c(Cl)ncnc32)ccn1 [NUCC-0226694]
UACC-62
  GI50: 8.13 µM
  IC50: 15.8 µM
  IC (TGI): 20.4 µM
  CC50: 45.7 µM
SNB-19
  GI50: 11.7 µM
  IC50: 21.4 µM
  IC (TGI): 24 µM
  CC50: 49 µM
OVCAR-4
  GI50: 12 µM
  IC50: 22.9 µM
  IC (TGI): 26.9 µM
  CC50: 58.9 µM
HS 578T
  GI50: 3.16 µM
  IC50: 24.5 µM
  IC (TGI): 16.6 µM
  CC50: ≥ 100 µM
ACHN
  GI50: 14.5 µM
  IC50: 25.1 µM
  IC (TGI): 28.8 µM
  CC50: 57.5 µM
SK-OV-3
  GI50: 17 µM
  IC50: 32.4 µM
  IC (TGI): 32.4 µM
  CC50: 61.7 µM
HCC-2998
  GI50: 1780 nM
  IC50: 3.16 µM
  IC (TGI): 3.24 µM
  CC50: 6.03 µM
SK-MEL-2
  GI50: 10 µM
  IC50: 21.9 µM
  IC (TGI): 22.4 µM
  CC50: 51.3 µM
MDA-MB-468
  GI50: 1780 nM
  IC50: 3.98 µM
  IC (TGI): 3.8 µM
  CC50: 7.94 µM
NCI-H23
  GI50: 2190 nM
  IC50: 3.98 µM
  IC (TGI): 4.9 µM
  CC50: 13.5 µM
T-47D
  GI50: 13.5 µM
  IC50: 38 µM
  IC (TGI): 61.7 µM
  CC50: ≥ 100 µM
HT29; HT-29
  GI50: 14.1 µM
  IC50: 21.9 µM
  IC (TGI): 41.7 µM
HT29; HT-29, read-out: LC50 (the source's name) (converted)
  CC50: ≥ 100 µM
SN12C
  GI50: 9.12 µM
  IC50: 15.5 µM
  IC (TGI): 21.4 µM
  CC50: 46.8 µM
U251; U-251
  GI50: 15.1 µM
  IC50: 26.9 µM
  IC (TGI): 28.8 µM
U251; U-251, read-out: LC50 (the source's name) (converted)
  CC50: 56.2 µM
SR
  TGI: 4 −log[M]
  GI50: 3630 nM
  IC50: 4.79 µM
  CC50: ≥ 100 µM
M14
  GI50: 1510 nM
  IC50: 2.69 µM
  IC (TGI): 4.17 µM
  CC50: 16.6 µM
UACC-257
  GI50: 8.51 µM
  IC50: 19.5 µM
  IC (TGI): 21.9 µM
  CC50: 49 µM
SF-539
  GI50: 13.8 µM
  IC50: 24.5 µM
  IC (TGI): 26.9 µM
  CC50: 51.3 µM
COLO 205
  GI50: 15.1 µM
  IC50: 26.3 µM
  IC (TGI): 46.8 µM
  CC50: ≥ 100 µM
SNB-75
  GI50: 1780 nM
  IC50: 6.61 µM
  IC (TGI): 7.24 µM
  CC50: 27.5 µM
SK-MEL-28
  GI50: 4.57 µM
  IC50: 10 µM
  IC (TGI): 16.2 µM
  CC50: 40.7 µM
HOP-62
  GI50: 14.5 µM
  IC50: 27.5 µM
  IC (TGI): 29.5 µM
  CC50: 61.7 µM
SK-MEL-5
  GI50: 3.89 µM
  IC50: 6.92 µM
  IC (TGI): 14.1 µM
  CC50: 38 µM
MDA-MB-231/ATCC
  GI50: 3.31 µM
  IC50: 7.94 µM
  IC (TGI): 12.6 µM
  CC50: 42.7 µM
OVCAR-3
  GI50: 2.34 µM
  IC50: 4.07 µM
  IC (TGI): 7.08 µM
  CC50: 30.9 µM
A549/ATCC
  GI50: 16.6 µM
  IC50: 27.5 µM
  IC (TGI): 38 µM
  CC50: 89.1 µM
A498
  GI50: 15.8 µM
  IC50: 33.1 µM
  IC (TGI): 30.9 µM
  CC50: 58.9 µM
SW-620
  GI50: 3.89 µM
  IC50: 4.9 µM
  IC (TGI): 16.6 µM
  CC50: 49 µM

## FC(F)(F)c1cc2c(Cl)ncnc2n1CCC1CCOCC1 [NUCC-0226674]
UACC-62; five-dose
  GI50: 4.27 µM
  IC50: 8.13 µM
  IC (TGI): 15.8 µM
  CC50: 40.7 µM
SNB-19; five-dose
  GI50: 5.25 µM
  IC50: 12.3 µM
  IC (TGI): 18.2 µM
  CC50: 43.7 µM
OVCAR-4; five-dose
  GI50: 18.6 µM
  IC50: 38 µM
  IC (TGI): 50.1 µM
  CC50: ≥ 100 µM
HS 578T; five-dose
  GI50: 12 µM
  IC50: 70.8 µM
  IC (TGI): 45.7 µM
  CC50: ≥ 100 µM
ACHN; five-dose
  GI50: 11 µM
  IC50: 18.6 µM
  IC (TGI): 26.3 µM
  CC50: 61.7 µM
SK-OV-3; five-dose
  GI50: 17.4 µM
  IC50: 33.1 µM
  IC (TGI): 33.1 µM
  CC50: 64.6 µM
HCC-2998; five-dose
  GI50: 1620 nM
  IC50: 2.95 µM
  IC (TGI): 3.02 µM
  CC50: 5.62 µM
SK-MEL-2; five-dose
  GI50: 13.2 µM
  IC50: 29.5 µM
  IC (TGI): 28.2 µM
  CC50: 60.3 µM
MDA-MB-468; five-dose
  GI50: 1660 nM
  IC50: 3.8 µM
  IC (TGI): 3.47 µM
  CC50: 7.24 µM
NCI-H23; five-dose
  GI50: 2570 nM
  IC50: 4.9 µM
  IC (TGI): 10 µM
  CC50: 34.7 µM
T-47D; five-dose
  GI50: 20.4 µM
  IC50: 47.9 µM
  IC (TGI): 60.3 µM
  CC50: ≥ 100 µM
HT29; HT-29, five-dose
  GI50: 13.8 µM
  IC50: 21.4 µM
  IC (TGI): 44.7 µM
HT29; HT-29, five-dose, read-out: LC50 (the source's name) (converted)
  CC50: ≥ 100 µM
SN12C; five-dose
  GI50: 6.61 µM
  IC50: 12.6 µM
  IC (TGI): 20 µM
  CC50: 46.8 µM
U251; U-251, five-dose
  GI50: 2.09 µM
  IC50: 3.24 µM
  IC (TGI): 5.62 µM
U251; U-251, five-dose, read-out: LC50 (the source's name) (converted)
  CC50: 28.2 µM
SR; five-dose
  GI50: 2040 nM
  IC50: 3.72 µM
  CC50: ≥ 100 µM
  TGI: 5.27 −log[M]
M14; five-dose
  GI50: 3720 nM
  IC50: 6.31 µM
  IC (TGI): 16.2 µM
  CC50: 50.1 µM
UACC-257; five-dose
  GI50: 3.55 µM
  IC50: 9.33 µM
  IC (TGI): 15.5 µM
  CC50: 52.5 µM
SF-539; five-dose
  GI50: 13.8 µM
  IC50: 24.5 µM
  IC (TGI): 27.5 µM
  CC50: 56.2 µM
COLO 205; five-dose
  GI50: 16.2 µM
  IC50: 30.2 µM
  IC (TGI): 37.2 µM
  CC50: 85.1 µM
SNB-75; five-dose
  GI50: 3090 nM
  IC50: 15.5 µM
  IC (TGI): 15.1 µM
  CC50: 39.8 µM
SK-MEL-28; five-dose
  GI50: 2.63 µM
  IC50: 4.57 µM
  IC (TGI): 6.03 µM
  CC50: 21.4 µM
HOP-62; five-dose
  GI50: 17 µM
  IC50: 33.1 µM
  IC (TGI): 35.5 µM
  CC50: 72.4 µM
SK-MEL-5; five-dose
  GI50: 2.82 µM
  IC50: 4.37 µM
  IC (TGI): 9.33 µM
  CC50: 30.2 µM
MDA-MB-231/ATCC; five-dose
  GI50: 3.89 µM
  IC50: 8.13 µM
  IC (TGI): 14.1 µM
  CC50: 43.7 µM
OVCAR-3; five-dose
  GI50: 12.3 µM
  IC50: 23.4 µM
  IC (TGI): 27.5 µM
  CC50: 61.7 µM
A549/ATCC; five-dose
  GI50: 21.9 µM
  IC50: 34.7 µM
  IC (TGI): 56.2 µM
  CC50: ≥ 100 µM
A498; five-dose
  GI50: 16.2 µM
  IC50: 30.9 µM
  IC (TGI): 30.2 µM
  CC50: 55 µM
SW-620; five-dose
  GI50: 12 µM
  IC50: 17.4 µM
  IC (TGI): 28.2 µM
  CC50: 67.6 µM
